Common to all, as to experiment: FRET titration (MLCT donor to Cy5.5-labeled DNA), dose-response fit
The test system of test [1] is G-quadruplex (G4) (DNA, G4) AGGGTTAGGGTTAGGGTTAGGG
To be noted: 100 mM KCl, 10 mM Tris.HCl, pH 7.4, 1 μM DNA.

For test [2], the system named is 3WJ (three-way junction) (DNA, junction) TGAGGATGTGTAGGTTGATG/CATCAACCTAAGAATGAGAC/GTCTCATTCTCACATCCTCA
To be noted: 200 mM NaCl, 5 mM Tris, pH 7.5, 1 μM DNA.

Test [3] relates to mismatch 3 duplex (27-mer, CC mismatch at 24 bp) (DNA, mismatch bulge abasic) GACCAGCTTATCACCCCTAGATACCAT/ATGCTATCTAGGGGTGATAAGCTGGTC
To be noted: 200 mM NaCl; 5 mM Tris, pH 7.5; 1 μM DNA.

Test [4] concerns mismatch 2 duplex (27-mer, CC mismatch at 14 bp) (DNA, mismatch bulge abasic) GACCAGCTTATCACCCCTAGATACCAT/ATGGTATCTAGGGCTGATAAGCTGGTC
To be noted: 200 mM NaCl; 5 mM Tris, pH 7.5; 1 μM DNA.

Test [5] concerns 20-mer duplex (DNA, duplex) TGAGGATGTGTAGGTTGATG/CATCAACCTACACATCCTCA
To be noted: 200 mM NaCl; 5 mM Tris, pH 7.5; 1 μM DNA.

Test [6] concerns mismatch 1 duplex (27-mer, CC mismatch at 4 bp) (DNA, mismatch bulge abasic) GACCAGCTTATCACCCCTAGATACCAT/ATGGTATCTAGGGGTGATAAGCTCGTC
To be noted: 200 mM NaCl; 5 mM Tris, pH 7.5; 1 μM DNA.

Test [7] relates to matched duplex (27-mer) (DNA, duplex) GACCAGCTTATCACCCCTAGATACCAT/ATGGTATCTAGGGGTGATAAGCTGGTC
To be noted: 200 mM NaCl; 5 mM Tris, pH 7.5; 1 μM DNA.

[8] abbreviates: not saturated, tested up to 20 μM.

Bounds are passed on as bounds.

The source of these data is paper PMC9853847 (2023).

For orientation: Kd means the equilibrium constant for the complex coming apart.

As for `Cc1ccc(-c2ccc(C)cn2)nc1.Cc1ccc(-c2ccc(C)cn2)nc1.[Ru+2].c1ccc2nc3c4cccnc4c4ncccc4c3nc2c1`, the Kd was 3.8 ± 1.7 µM in test [1]; 4.4 ± 0.7 µM in test [2]; 5.1 ± 0.3 µM in test [3]; 4.3 ± 0.6 µM in test [4]; 2.3 ± 0.5 µM in test [5]; 4.6 ± 0.6 µM in test [6]. The Kd in test [7] worked out at 4.7 ± 0.1 µM.
Take `Cc1ccc(-c2ccc(C)cn2)nc1.[Ru+2].c1ccc(-c2nc3c4cccnc4c4ncccc4c3[nH]2)cc1.c1ccc(-c2nc3c4cccnc4c4ncccc4c3[nH]2)cc1`: the Kd was greater than 20 µM in test [1] (setting [8]); 6.4 ± 0.3 µM in test [2]; 7.6 ± 1.9 µM in test [3]; greater than 20 µM in test [4]; 2.6 ± 1.0 µM in test [5]; 7.3 ± 2.5 µM in test [6]. Also, the Kd in test [7] is 7.9 ± 2.5 µM.
For the compound `Cc1ccc(-c2ccc(C)cn2)nc1.[Ru+2].c1ccc2nc3c4cccnc4c4ncccc4c3nc2c1.c1ccc2nc3c4cccnc4c4ncccc4c3nc2c1`, the equilibrium dissociation constant (Kd) in test [1] (setting [8]) was greater than 20 µM; in test [2] (tested up to 20 μM), greater than 20 µM; in test [3] it was 8.1 ± 3.7 µM; in test [4], 8.3 ± 3.0 µM; in test [5], 6.3 ± 0.3 µM; in test [6] it was 6.4 ± 1.7 µM. Moreover, the Kd in test [7] is 8.1 ± 1.7 µM.
Consider `[Ru+2].c1ccc(-c2ccccn2)nc1.c1ccc(-c2ccccn2)nc1.c1ccc2nc3c4cccnc4c4ncccc4c3nc2c1`, for which the dissociation constant Kd in test [1] came out at 3.9 ± 1.3 µM; in test [2], 4.3 ± 0.9 µM; in test [3] it was 6.5 ± 1.8 µM; in test [4], 5.3 ± 0.6 µM; in test [5] it was 2.8 ± 0.9 µM; in test [6] it was 5.0 ± 0.7 µM. In test [7], this compound came in with a Kd of 5.1 ± 0.4 µM.
